Molecules are shown by their SMILES.

The test has as its system ATF4 luciferase reporter in HEK293T cells. Nature of the test: ATF4-Luc assay (ATF4 luciferase reporter, tunicamycin-treated HEK293T cells). The note with it: Homo sapiens, HEK-293T; HEK293T cells carrying the ATF4 luciferase reporter, 1 μg/mL tunicamycin, 7 hours. The class given is cell-based, human. For orientation: A reporter such as luciferase makes a cellular process visible.
The EC50 is the concentration at which the effect is half-maximal. On to `Cc1ccc(COCC(=O)NC23CC(NC(=O)COc4ccc(Cl)c(Cl)c4)(C2)C3)cc1` [Compound 160, 2-(3,4-dichlorophenoxy)-N-(3-{2-[(4-methylphenyl)methoxy]-acetamido}bicyclo[1.1.1]pentan-1-yl)acetamide], for which the EC50 was in the range of 0.05 to 0.25 µM.

Take `N#Cc1cccc(COCC(=O)NC23CC(NC(=O)COc4ccc(Cl)c(Cl)c4)(C2)C3)c1` [Compound 161, 2-[(3-cyanophenyl)methoxy]-N-{3-[2-(3,4-dichlorophenoxy)acetamido]bicyclo[1.1.1]pentan-1-yl}acetamide]: the EC50 is 0.05 to 0.25 µM.

On to `Cc1cccc(COCC(=O)NC23CC(NC(=O)COc4ccc(Cl)c(Cl)c4)(C2)C3)c1` [Compound 162, 2-(3,4-dichlorophenoxy)-N-(3-{2-[(3-methylphenyl)methoxy]-acetamido}bicyclo[1.1.1]pentan-1-yl)acetamide], for which the EC50 was 0.01 to 0.05 µM.

As for `O=C(CCOCc1cccc(Cl)c1)NC12CC(NC(=O)COc3ccc(Cl)c(F)c3)(C1)C2` [Compound 163, N-{3-[2-(4-chloro-3-fluorophenoxy)acetamido]bicyclo[1.1.1]pentan-1-yl}-3-[(3-chlorophenyl)methoxy]propanamide], the half-maximal effective concentration (EC50) was 0.25 to 0.5 µM.

Regarding `O=C(COc1ccc(Cl)c(F)c1)NC12CC(NC(=O)OCc3cccc(Cl)c3)(C1)C2` [Compound 164, (3-chlorophenyl)methyl {3-[2-(4-chloro-3-fluorophenoxy)-acetamido]bicyclo[1.1.1]pentan-1-yl}carbamate], the EC50 lay in the range of 0.5 to 2 µM.

Take `O=C(COc1ccc(Cl)c(F)c1)NC12CC(NC(=O)OCCc3cccc(Cl)c3)(C1)C2` [Compound 165, 2-(3-chlorophenyl)ethyl {3-[2-(4-chloro-3-fluorophenoxy)-acetamido]bicyclo[1.1.1]pentan-1-yl}carbamate]: the half-maximal effective concentration (EC50) is 0.05 to 0.25 µM.

`O=C(COc1ccc(Cl)c(F)c1)NC12CC(NC(=O)OCCCc3cccc(Cl)c3)(C1)C2` [Compound 166, 3-(3-chlorophenyl)propyl {3-[2-(4-chloro-3-fluorophenoxy)acetamido]-bicyclo[1.1.1]pentan-1-yl}carbamate]: the EC50 was 0.25 to 0.5 µM.

As to `O=C(CCOCc1cccc(Cl)c1)NC12CC(NC(=O)COc3ccc(Cl)c(Cl)c3)(C1)C2` [Compound 167, 3-[(3-chlorophenyl)methoxy]-N-{3-[2-(3,4-dichlorophenoxy)acetamido]-bicyclo[1.1.1]pentan-1-yl}propanamide], the EC50 is 0.5 to 2 µM.

With `O=C(CCCOc1cccc(Cl)c1)NC12CC(NC(=O)COc3ccc(Cl)c(Cl)c3)(C1)C2` [Compound 168, 4-(3-chlorophenoxy)-N-{3-[2-(3,4-dichlorophenoxy)acetamido]-bicyclo[1.1.1]pentan-1-yl}butanamide], the concentration giving a half-maximal response (EC50) lay within 0.05 to 0.25 µM.

As for `O=C(CCOc1cccc(Cl)c1)NC12CC(NC(=O)COc3ccc(Cl)c(Cl)c3)(C1)C2` [Compound 169, 3-(3-chlorophenoxy)-N-{3-[2-(3,4-dichlorophenoxy)acetamido]bicyclo-[1.1.1]pentan-1-yl}propanamide], the EC50 was 0.25 to 0.5 µM.

Take `CN(C)c1cccc(CCOCC(=O)NC23CC(NC(=O)COc4ccc(Cl)c(Cl)c4)(C2)C3)c1` [Compound 170, 2-(3,4-dichlorophenoxy)-N-[3-(2-{2-[3-(dimethylamino)phenyl]ethoxy}-acetamido)bicyclo[1.1.1]pentan-1-yl]acetamide]: the 50% effective concentration (EC50) was greater than 2 µM.

On to `O=C(COc1cccc(Cl)c1)NC12CC(NC(=O)COc3ccc(Cl)c(Cl)c3)(C1)C2` [Compound 171, 2-(3-chlorophenoxy)-N-{3-[2-(3,4-dichlorophenoxy)acetamido]-bicyclo[1.1.1]pentan-1-yl}acetamide], for which the 50% effective concentration (EC50) is less than 0.01 µM.

`O=C(COc1ccc(Cl)c(Cl)c1)NC12CC(NC(=O)OCc3cccc(Cl)c3)(C1)C2` [Compound 172, (3-chlorophenyl)methyl {3-[2-(3,4-dichlorophenoxy)acetamido]-bicyclo[1.1.1]pentan-1-yl}carbamate]: the 50% effective concentration (EC50) was in the range of 0.25 to 0.5 µM.

Consider `O=C(COc1ccc(Cl)c(Cl)c1)NC12CC(NC(=O)OCCc3cccc(Cl)c3)(C1)C2` [Compound 173, 2-(3-chlorophenyl)ethyl {3-[2-(3,4-dichlorophenoxy)acetamido]-bicyclo[1.1.1]pentan-1-yl}carbamate], for which the EC50 lay in the range of 0.05 to 0.25 µM.

In the case of `O=C(COc1ccc(Cl)c(Cl)c1)NC12CC(NC(=O)OCCCc3cccc(Cl)c3)(C1)C2` [Compound 174, 3-(3-chlorophenyl)propyl {3-[2-(3,4-dichlorophenoxy)acetamido]-bicyclo[1.1.1]pentan-1-yl}carbamate], the EC50 lay within 0.25 to 0.5 µM.

As for `O=C(COc1ccc(Cl)cc1)NC12CCC(NC(=O)COc3ccc(Cl)cc3)(C1)C2` [Compound 176, N,N′-(bicyclo[2.1.1]hexane-1,4-diyl)bis[2-(4-chlorophenoxy)acetamide]], the half-maximal effective concentration (EC50) lay within 0.01 to 0.05 µM.

For the molecule `O=C(COc1ccc(Cl)c(F)c1)NC12CCC(NC(=O)COc3ccc(Cl)c(F)c3)(C1)C2` [Compound 177, N,N′-(bicyclo[2.1.1]hexane-1,4-diyl)bis[2-(4-chloro-3-fluorophenoxy)acetamide]], the EC50 is less than 0.01 µM.

Consider `O=C(COc1ccc(Cl)cc1)NC12CCCC(NC(=O)COc3ccc(Cl)cc3)(C1)C2` [Compound 178, N,N′-(bicyclo[3.1.1]heptane-1,5-diyl)bis[2-(4-chlorophenoxy)acetamide]], for which the concentration giving a half-maximal response (EC50) was greater than 2 µM.

In the case of `O=C(COc1ccc(Cl)c(F)c1)NC12CCCC(NC(=O)COc3ccc(Cl)c(F)c3)(C1)C2` [Compound 179, N,N′-(bicyclo[3.1.1]heptane-1,5-diyl)bis[2-(4-chloro-3-fluorophenoxy)acetamide]], the EC50 was greater than 2 µM.

For the molecule `O=C(COc1ccc(Cl)c(F)c1)NC12CCC(NC(=O)OCc3ccccc3)(C1)C2` [Compound 180, benzyl {4-[2-(4-chloro-3-fluorophenoxy)acetamido]bicyclo[2.1.1]hexan-1-yl}carbamate], the EC50 was in the range of 0.05 to 0.25 µM.

In the case of `O=C(COc1ccc(Cl)c(F)c1)NC12CCCC(NC(=O)OCc3ccccc3)(C1)C2` [Compound 181, benzyl {5-[2-(4-chloro-3-fluorophenoxy)acetamido]bicyclo[3.1.1]heptan-1-yl}carbamate], the concentration giving a half-maximal response (EC50) is greater than 2 µM.

Consider `O=C(COc1ccc(Cl)c(F)c1)NC12CC(NC(=O)COc3ccn4nccc4n3)(C1)C2` [Compound 182, 2-(4-chloro-3-fluorophenoxy)-N-(3-{2-[(pyrazolo[1,5-a]pyrimidin-5-yl)oxy]acetamido}bicyclo[1.1.1]pentan-1-yl)acetamide], for which the 50% effective concentration (EC50) is greater than 2 µM.

In the case of `O=C(COc1ccc(F)c(F)c1)NC12CC(NC(=O)COc3ccc(Cl)c(F)c3)(C1)C2` [Compound 183, 2-(4-chloro-3-fluorophenoxy)-N-{3-[2-(3,4-difluorophenoxy)acetamido]-bicyclo[1.1.1]pentan-1-yl}acetamide], the EC50 is less than 0.01 µM.

Consider `Cc1n[nH]c2cc(OCC(=O)NC34CC(NC(=O)COc5ccc(Cl)c(F)c5)(C3)C4)ccc12` [Compound 184, 2-(4-chloro-3-fluorophenoxy)-N-(3-{2-[(3-methyl-1H-indazol-6-yl)oxy]acetamido}bicyclo[1.1.1]pentan-1-yl)acetamide], for which the EC50 fell in the range of 0.05 to 0.25 µM.

`O=C(COc1ccc(F)c(F)c1)NC12CC(NC(=O)COc3ccc(F)c(F)c3)(C1)C2` [Compound 185, N,N′-(bicyclo[1.1.1]pentane-1,3-diyl)bis[2-(3,4-difluorophenoxy)acetamide]]: the concentration giving a half-maximal response (EC50) was in the range of 0.01 to 0.05 µM.

Turning to `O=C(COc1ccc(Cl)c(F)c1)NC12CC(NC(=O)COc3ccc(Cl)c(F)c3)(C1)C2` [Compound 186, N,N′-(bicyclo[1.1.1]pentane-1,3-diyl)bis[2-(4-chloro-3-fluorophenoxy)acetamide]], the EC50 is less than 0.01 µM.

For `O=C(COc1ccc(Cl)c(F)c1)NC12CCC(NC(=O)COc3ccc4cn[nH]c4c3)(C1)C2` [Compound 187, 2-(4-chloro-3-fluorophenoxy)-N-(4-{2-[(1H-indazol-6-yl)oxy]acetamido}bicyclo[2.1.1]hexan-1-yl)acetamide], the concentration for a half-maximal effect (EC50) was 0.05 to 0.25 µM.

On to `O=C(COc1ccc(C(F)(F)F)nc1)NC12CCC(NC(=O)COc3ccc(Cl)c(F)c3)(C1)C2` [Compound 188, 2-(4-chloro-3-fluorophenoxy)-N-[4-(2-{[6-(trifluoromethyl)pyridin-3-yl]oxy}acetamido)bicyclo[2.1.1]hexan-1-yl]acetamide], for which the EC50 lay in the range of 0.05 to 0.25 µM.

Regarding `CC(C)(C)[Si](C)(C)OCCN(C(=O)COc1ccc(Cl)c(F)c1)C12CC(NC(=O)COc3ccc(Cl)c(F)c3)(C1)C2` [Compound 189, N-(2-{[tert-butyl(dimethyl)silyl]oxy}ethyl)-2-(4-chloro-3-fluorophenoxy)-N-{3-[2-(4-chloro-3-fluorophenoxy)acetamido]bicyclo[1.1.1]pentan-1-yl}acetamide], the 50% effective concentration (EC50) fell in the range of 0.5 to 2 µM.

Turning to `O=C(COc1ccc(Cl)c(F)c1)NC12CC(N(CCO)C(=O)COc3ccc(Cl)c(F)c3)(C1)C2` [Compound 190, 2-(4-chloro-3-fluorophenoxy)-N-{3-[2-(4-chloro-3-fluorophenoxy)acetamido]-bicyclo[1.1.1]pentan-1-yl}-N-(2-hydroxyethyl)acetamide], the EC50 lay within 0.5 to 2 µM.

For `O=C(COc1ccc(Cl)c(F)c1)NC12CC(N(CCO)C(=O)COc3ccc(C(F)(F)F)nc3)(C1)C2` [Compound 191, N-{3-[2-(4-chloro-3-fluorophenoxy)acetamido]bicyclo[1.1.1]pentan-1-yl}-N-(2-hydroxyethyl)-2-{[6-(trifluoromethyl)pyridin-3-yl]oxy}acetamide], the EC50 lay within 0.5 to 2 µM.

Turning to `O=C(COc1ccc(Cl)c(F)c1)NC12CC(NC(=O)OCc3ccccc3)(C1)C2` [Compound 192, benzyl {3-[2-(4-chloro-3-fluorophenoxy)acetamido]bicyclo[1.1.1]pentan-1-yl}carbamate], the concentration giving a half-maximal response (EC50) was in the range of 0.5 to 2 µM.

`O=C(COc1ccc(Cl)c(Cl)c1)NC12CCC(NC(=O)OCc3ccccc3)(C1)C2` [Compound 193, benzyl {4-[2-(3,4-dichlorophenoxy)acetamido]bicyclo[2.1.1]hexan-1-yl}carbamate]: the EC50 is greater than 2 µM.

As for `O=C(COc1ccc(Cl)c(Cl)c1)NC12CCCC(NC(=O)OCc3ccccc3)(C1)C2` [Compound 194, benzyl {5-[2-(3,4-dichlorophenoxy)acetamido]bicyclo[3.1.1]heptan-1-yl}carbamate], the concentration for a half-maximal effect (EC50) was greater than 2 µM.
